Read-outs that look alike come from different tables or passages of the source. Marks after values point to notes of the source that are not given here.
How the values were obtained:
[1] = tested on: CATIE Phase I non-responders; details: CATIE Phase II, LOCF; for Responders (number): decrease PANSS ≧ 20%
[2] = tested on: CATIE Caucasian schizophrenia patients; assay: Time to discontinuation for all causes in the CATIE study; assay type: in vivo, human; details: SULT4A1-1 Negative
From the text: The primary endpoint for the CATIE study was time to discontinuation for all causes (Lieberman et al., 2005). Thus the inventors evaluated the effect of SULT41-1 status on this important parameter.

[3] = tested on: CATIE patients with schizophrenia of European ancestry; assay: CATIE Phase I percent change of PANSS from baseline (LOCF), linear model with haplotype and drug therapy; assay type: in vivo, human; details: Table 18
From the text: Genotype and phenotype data for the CATIE trial were recently made available to qualified researchers through The NIMH Center for Collaborative Genetic Studies on Mental Disorders. The inventors evaluated data for 417 CATIE patients with schizophrenia self reported as having exclusively European ancestry. This same patient population was described in a recent study by Sullivan and coworkers, which confirmed that there is no hidden stratification in the sample (Sullivan et al., 2008).
The CATIE clinical data set included baseline PANSS scores based on clinical assessments prior to initiation of the assigned therapy, but following the washout period for any patients previously on antipsychotic medication. Follow up PANSS data for the CATIE trial were collected at each visit as described in detail by others (Stroup et al., 2003). Briefly, the first visit was after one month of treatment, and subsequent visits were at somewhat irregular intervals of approximately three months for up to a total 18 months or until discontinuation of treatment, whichever came first.
For all subsequent analyses, the inventors focused on the single haplotype, designated SULT4A1-1. EM algorithm haplotypes were assigned to each patient using HelixTree software (Version 6.4.1; Golden Helix, Bozeman, Mont.), and each individual was scored as being positive or negative for the presence of the haplotype. The inventors assigned SULT4A1-1 haplotype status to those individuals for which EM algorithm assignment could be made with error probabilities of <1%. This included a total of 395 patients from the CATIE study. With the exception of four of the 395 patients in the CATIE study, SULT4A1-1 haplotype status could be assigned with error probabilities of <1×10-5.
Since follow-up on subjects was not done at uniform time intervals, analysis was done using the last observation for each patient in treatment Phase I of the trial as the measure of response (last observation carried forward, LOCF). Main effect and interaction terms between the SULT4A1-1 haplotype and drug therapy were included in the linear model. A pre-determined set of contrasts for differences in percent change PANSS by haplotype within each drug therapy (three comparisons) and by drug therapy within each haplotype (six comparisons) were evaluated, with adjustment for multiple-comparisons using the step-up false-discovery rate (FDR) controlling procedure (Benjamini and Hochberg, 1995). A sub-analysis omitting those patients who were randomized to the same antipsychotic drug therapy was also conducted. […]

[4] = tested on: CATIE African American schizophrenia patients; assay: CATIE drug response: change in total PANSS (LOCF), segmented by SULT4A1-1 status, African Americans; assay type: in vivo, human
Description: The design of the CATIE study has been described in detail by others (Lieberman et al., 2005; Stroup et al., 2003). […] A total of 738 subjects consented to provide DNA for genetic study. […] Retrospective genetic analyses, judged to be exempt from human studies requirements by an IRB, were conducted in the current study. All tested patients were studied using well established clinical endpoints comparing baseline, intermediate, and last observation carried forward (LOCF) for the PANSS scores using CATIE data. […] To remove time on drug as a variable for the CATIE trial, analysis was limited to only those patients who were randomized to a different drug following the initial washout period (drug switchers).

[5] = tested on: patients, populations not segmented by SULT4A1-1 status; details: meta-analysis, Leucht et al. (2009); negative = greater reduction in PANSS; cited from earlier work
[6] = tested on: patients, unsegmented populations; details: Meta-analysis, Leucht et al. (2009); cited from earlier work
[7] = tested on: CATIE patients; assay: Kaplan-Meier survival (no hospitalization event) analysis, SULT4A1-1 negative vs positive; assay type: in vivo, human; details: FIG. 8
Description: A Kaplan-Meier survival analysis was performed to determine whether there was a difference between the survival (hospitalization) rates for the SULT4A1-1 negative and SULT4A1-1 positive patient populations treated with each of the atypical antipsychotics. Survival plots model the fraction of the population that survived (i.e., no hospitalization event) as a function of time.

[8] = tested on: CATIE Caucasian subjects; assay: Rate of hospitalization due to exacerbation of psychosis in CATIE by SULT4A1-1 status; assay type: in vivo, human; details: CATIE Phases 1, 2 and/or 3
From the text: For this analysis, the inventors assigned a dichotomous value (positive or negative) for hospitalization status to subjects in each phase of the trial based on only the first hospitalization event for a given patient in that phase.

[9] = tested on: patients, unsegmented populations; details: first generation antipsychotics; Davis et al. (2003); cited from earlier work

OCCOCCN1CCN(C2=Nc3ccccc3Sc3ccccc32)CC1 [Quetiapine]
Nonresponders (number) ([1]; SULT4A1-1 Negative): 10 | Responders (number) ([1]; SULT4A1-1 Negative): 1 | Nonresponders (number) ([1]; SULT4A1-1 Positive): 1 | Responders (number) ([1]; SULT4A1-1 Positive): 0 | Time to discontinuation, mean time in months [2]: 8.6*** Months | Difference in percent change in PANSS score ([3]; Complete Sample, SULT4A1-1+ patients, labelled drug vs Risperidone): −1.0% | Difference in percent change in PANSS score ([3]; Complete Sample, same drug, SULT4A1-1+ vs SULT4A1-1−): −5.4% | Difference in percent change in PANSS score ([3]; Patients Randomized to a Different Medication, SULT4A1-1+ patients, labelled drug vs Risperidone): −4.6% | Difference in percent change in PANSS score ([3]; Patients Randomized to a Different Medication, same drug, SULT4A1-1+ vs SULT4A1-1−): −6.8% | ≦−20% (number of individuals; responders) ([4]; SULT4A1-1 Negative): 9 | ≧−20% (number of individuals; non-responders) ([4]; SULT4A1-1 Negative): 25 | ≦−20% (number of individuals; responders) ([4]; SULT4A1-1 Positive): 2 | ≧−20% (number of individuals; non-responders) ([4]; SULT4A1-1 Positive): 4 | Effect Size vs. Placebo [5]: −0.42 | Mean Difference in Total PANSS Score, Olanzapine vs. labelled drug [6]: −3.7 | Difference between survival (no hospitalization) rates of SULT4A1-1 negative and SULT4A1-1 positive patients [7]: significant difference | HOSP (number of subjects hospitalized) ([8]; SULT4A1-1 Positive): 1 | HOSP (rate of hospitalization) ([8]; SULT4A1-1 Positive): (2.9%) | HOSP (number of subjects hospitalized) ([8]; SULT4A1-1 negative): 24 | HOSP (rate of hospitalization) ([8]; SULT4A1-1 negative): (19.5%) | HOSP (number of subjects hospitalized) ([8]; Unsegmented): 25 | Effect Size vs. FGA [9]: 0.01
